The nature of this data set: gradient 5% acetonitrile 3 min, to 50% in 2 min, to 85% in 15 min, held 3 min, 100 µL/min. The note with it: column: Zorbax Extend-C18 2.1 x 50 mm; eluents: water / acetonitrile, 0.1% formic acid. The method, boiled down: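 Each retention time is based on an adduct peak selected computationally and verified by manual inspection. Measurements used HPLC–quadrupole time-of-flight mass spectrometry in positive and negative ionization mode on mixtures of ~100 pure standards. Chromatography ran on a Zorbax Extend-C18 column (2.1 × 50 mm, 1.8 μm) at 100 μL/min with water and acetonitrile, each containing 0.1% formic acid, and dead and dwell volumes of 40 μL and 900 μL.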
As for `CCOC(=O)CCNC(=O)N1CCC(N2C(=O)C3(CCCC3)C2c2scnc2C)CC1` (centres undefined), the RP-LC retention time amounted to 685 s.

On to `Cc1ccc(CNC(=O)C2(C)CCCN(C(=O)NCCC(C)C)C2)cc1` (centres undefined), for which the RP-LC retention time is 910 s. Turning to `CN1CCCc2cc(C(=O)NCc3ccccc3F)sc21`, the RP-LC retention time came out at 915 s. As for `O=C(COc1ccccc1-c1nnc(-c2ccccc2)o1)N1CCN(C(=O)c2ccco2)CC1`, the figure is 760 s; as for `Fc1cccc(CN2CCc3nc(N4CCOCC4)ncc3C2)c1`, 604 s.

As to `Cc1ccc(-c2nc3nc(C)cc(N(CCO)CCO)n3n2)cc1`, the RP-LC retention time stood at 614 s. For `CC(C)c1noc(C2CCCCN2C(=O)c2cnn3cccnc23)n1` (centres undefined) the value was 755 s; for `O=C(c1cc2ccccc2[nH]1)N1CCN(c2ccc(=O)n(-c3ccc(Cl)cc3)n2)CC1`, 918 s.

Take `COc1ccc(CC(=O)N2CCC3(CC2)NC(=O)c2cc(C)ccc2N3C)cc1`: the RP-LC retention time is 769 s. `COCCNC(=O)C1CCN(C(=O)c2cc3ccsc3n2Cc2cccc(OC)c2)CC1` came in with an RP-LC retention time of 770 s. As for `O=S(=O)(c1cc(-c2nnc(C3CC3)o2)co1)N1CCC(Cc2ccccc2)CC1`, the figure is 1080 s; as for `Cc1ccc(NS(=O)(=O)c2cc(-c3[nH]ncc3C(=O)N3CCCCC3)oc2C)c(F)c1`, 806 s.

`O=C(c1cc(-c2ccco2)on1)N1CCCC1c1ccccc1F` (centres undefined) returned an RP-LC retention time of 777 s. As for `Cc1cc(Cl)ccc1NC(=O)c1cccn1Cc1noc(C2CC2)n1`, the figure is 1020 s; as for `CNC(=O)c1cc(NC)nc2c(Cl)cccc12`, 568 s. `Cn1nc(CNC(=O)c2cccs2)c2ccccc21`: the RP-LC retention time was found to be 764 s.

Compound `CC(C)(C)C(=O)Nc1nnc(-c2cccs2)o1` showed an RP-LC retention time of 652 s. For `CC1CN(C(=O)Cn2cc(SCC(=O)N3CCCCC3)c3ccccc32)CC(C)O1` (centres undefined) the value was 783 s. The compound `CCOc1ccc(CNC(=O)c2nnn(Cc3nc(-c4cccc(C)c4)oc3C)c2C)cc1` came in with an RP-LC retention time of 1140 s. For `CCCN(c1ccccc1F)S(=O)(=O)c1ccc2c(c1)N(C(C)=O)CCCS2` the value was 993 s; for `COC(=O)c1cc2c(=O)n(-c3cccc(C(F)(F)F)c3)ccc2nc1C`, 917 s; for `Cc1ncoc1C(=O)N1CCC(c2noc(-c3cccnc3)n2)C1` (centres undefined), 640 s. As for `CC(C)Oc1ccc(CNC(=O)C2CCN(S(=O)(=O)c3ccc4c(c3)NC(=O)CO4)CC2)cc1`, the figure is 821 s. `Cc1cccc(N2CCN(c3cc(C(=O)O)c4cc(NC(=O)C(C)(C)C)ccc4n3)CC2)c1C` showed an RP-LC retention time of 774 s. Consider `CC1(C)C(=O)N(CC(=O)Nc2c3c(nc4ccccc24)CCCC3)c2ccccc21`, for which the RP-LC retention time was 664 s. Consider `Cc1cccn2c(=O)cc(CN(C)Cc3ccc(Cl)cc3)nc12`, for which the RP-LC retention time was found to be 629 s. As for `O=c1ccc(-c2cccc(Cl)c2)nn1CCc1nc(-c2ccccc2)no1`, the figure is 1030 s; as for `CCn1cc(S(=O)(=O)N2CCC3(CC2)CN(Cc2ccc(OC)cc2)C3=O)cn1`, 729 s.

In turn, `O=C(CSc1nnc(NC(=O)C2(c3cccs3)CCCC2)s1)c1ccccc1` gave an RP-LC retention time of 1050 s. As for `O=S(=O)(c1cccc(C(F)(F)F)c1)N1CCC2(CCN(c3cccnc3)C2)C1` (centres undefined), the figure is 702 s; as for `N#Cc1c(C(F)(F)F)cc(-c2ccccc2)nc1SCCC(N)=O`, 839 s; as for `Cc1ccc(N2N=C(C(=O)N3CCN(CC(C)C)CC3)S(=O)(=O)c3cccnc32)cc1`, 674 s. In the case of `CCNC(=O)NCC1CCN(C(=O)NC(C)(C)C)CC1`, the RP-LC retention time is 597 s. As for `COc1ccc(Cl)cc1C(=O)NCC(O)C1CCCCC1` (centres undefined), the figure is 863 s. For the compound `CCc1sc(NC(=O)c2cc3c([nH]c2=O)CC(C)(C)CC3=O)nc1-c1ccc(C)c(C)c1`, the RP-LC retention time was determined as 1150 s.

Turning to `O=C(NCc1ccc(F)cc1)N1CCCC(Cn2c(C3CC3)nc3cccnc32)C1` (centres undefined), the RP-LC retention time is 669 s.

In turn, `O=C(NC1CCCC1)N1CCC(Oc2ccc(-c3noc(C4CC4)n3)cc2)C1` (centres undefined) had an RP-LC retention time of 904 s.

`NC(=O)c1ccc(-n2cccc2)nc1`: the RP-LC retention time was 650 s.

`Cc1ccc(C(C)C)cc1NC(=O)Nc1ccc([N+](=O)[O-])cc1`: the RP-LC retention time came to 1160 s. As for `CCn1nccc1C(=O)N1CCCC1c1cccc(F)c1` (centres undefined), the figure is 812 s; as for `CCc1nnc(-c2cc(C)n(CC(=O)Nc3ccc(F)c(Cl)c3)c2C)o1`, 861 s. For `Cc1ccccc1-c1nc(-c2ccc3c(c2)nnn3CCN2CCOCC2)no1` the value was 706 s; for `O=C(Nc1cccn2ncnc12)c1ccc(Cl)s1`, 820 s; for `COc1ccc(-c2noc(CSc3nc4cc5c(cc4c(=O)n3CC3CCCO3)OCO5)n2)cc1` (centres undefined), 1090 s.

For `Cc1ccc(NC(=O)C2CCCN(S(=O)(=O)c3cc(-c4noc(C)n4)cs3)C2)c(Cl)c1` (centres undefined), the RP-LC retention time came out at 1060 s. `COCc1ncc(C)n1CC1CN(C(=O)C2(c3ccccc3)CC2)C1` came in with an RP-LC retention time of 621 s. `CCOC(=O)c1c(-c2cccs2)csc1NC(=O)CSc1ncn[nH]1` registered an RP-LC retention time of 815 s. As for `CCc1ccc(C2=Nc3cccnc3N(CC(=O)Nc3ccc4c(c3)OCCO4)C(=O)C2)cc1`, the figure is 1020 s; as for `CC1CCN(c2cc(-c3noc(C(=O)NCCN(C)C)n3)ccn2)CC1`, 566 s; as for `Cc1cccc(-c2nnc(-c3cccc(S(=O)(=O)N4CCCC4)c3)o2)c1`, 1050 s.

`Cn1c(=O)n(CC(=O)Nc2ccccc2Cl)c(=O)c2cnc(-c3ccccc3)nc21` returned an RP-LC retention time of 1020 s. Consider `CCN1CCn2cc(S(=O)(=O)NCc3ccccc3F)cc2C1=O`, for which the RP-LC retention time was found to be 685 s.

In turn, `O=C(NCc1ccco1)c1ccc2cnn(Cc3cccc(Cl)c3)c2c1` returned an RP-LC retention time of 947 s. As to `CC(C)NC(=O)CCn1c(=O)c2cc(Cl)ccc2n2c(=O)n(Cc3ccccc3)nc12`, the RP-LC retention time was determined as 856 s.

Regarding `NC(=O)c1ccsc1NC(=O)c1c[nH]c2ccccc12`, the RP-LC retention time was 673 s. In turn, `O=C(Nc1ccc(F)cc1)C1CCN(C(=O)c2ncn3c2COC(c2ccccc2)C3)CC1` (centres undefined) returned an RP-LC retention time of 791 s. In turn, `CN(CC1(C)CCOCC1)C(=O)CCc1c[nH]c2ccccc12` gave an RP-LC retention time of 772 s.

Turning to `O=C(CCn1cnc2ccccc2c1=O)N1CCN(c2ccccn2)CC1`, the RP-LC retention time is 578 s. As for `CC(C)Cc1ccc(S(=O)(=O)N2CCc3c(c(-c4nnc(-c5ccccc5F)o4)nn3C)C2)cc1`, the figure is 1140 s; as for `CCCNc1cc(N2CCC(CCC(=O)NC3CC3)CC2)ncn1`, 588 s; as for `COc1cc(OC)c(NC(=O)CSc2nccnc2N2CCSCC2)cc1Cl`, 1020 s.

In turn, `CC(=O)SCC(Cc1ccccc1)C(=O)NCC(=O)OCc1ccccc1` (centres undefined) came in with an RP-LC retention time of 1080 s. Take `COc1ccc(N2CCN(C(=O)C3CC(=O)N(CCc4ccccc4)C3)CC2)cc1` (centres undefined): the RP-LC retention time stood at 729 s. For `CC(=O)c1ccc(NS(C)(=O)=O)c(Oc2ccc(F)cc2F)c1`, the RP-LC retention time was determined as 954 s. `CC1CCC(NC(=O)C2CCN(C(=O)c3ncn4c3COC(c3ccccc3)C4)CC2)CC1` (centres undefined): the RP-LC retention time came to 816 s.

`O=C(Nc1ccc2c(c1)Cc1ccccc1-2)c1csc(Nc2ncccn2)n1`: the RP-LC retention time is 972 s. `COc1ccc(-c2noc(Cc3nnc(-c4ccc(F)cc4)o3)n2)cc1` gave an RP-LC retention time of 972 s.

For `COc1ccccc1-c1cnn2c(N3CCN(c4cccc(C)n4)CC3)cc(C)nc12`, the RP-LC retention time came out at 638 s.

The compound `CNC(=O)c1cc(Oc2ccc(NC(=O)Nc3ccc(Cl)c(C(F)(F)F)c3)cc2)ccn1` displayed an RP-LC retention time of 1190 s. The compound `O=C(NCCn1nc(-c2ccco2)ccc1=O)c1ccc2c(c1)ncn2-c1ccccc1` registered an RP-LC retention time of 629 s. For `Cc1ccc(Cl)cc1NS(=O)(=O)c1ccc2onc(C(=O)N3CCCC3)c2c1` the value was 1030 s; for `Cc1ccccc1NC(=O)C1CCN(S(=O)(=O)c2cc(-c3noc(C4CCC4)n3)cs2)CC1`, 1060 s; for `Cc1nnc(-c2cc(NC(=O)c3ccc(C(F)(F)F)cc3)c(C)s2)o1`, 986 s. `COc1cccc(C(=O)Nc2nc(-c3ccc(OC)c([N+](=O)[O-])c3)c(C)s2)c1` yielded an RP-LC retention time of 1070 s. For `CCCNC(=O)c1cn(-c2ccc(-c3nc(C(C)C)no3)cn2)cn1` the value was 847 s; for `Cn1cc(C2=CCN(C(=O)c3cccc(F)c3)CC2)c2cccnc21`, 816 s; for `CCOC(=O)c1c(S(=O)(=O)N2CCC(C(=O)Nc3ccc(C)c(F)c3)CC2)c(C)n(CC)c1C`, 984 s. As for `O=C(COc1ccccc1)N1CCC(CNS(=O)(=O)Cc2cccc(F)c2)CC1`, the figure is 782 s; as for `O=C(NC1CCN(c2ccc(=O)[nH]n2)C1)c1ccc(F)c(Cl)c1` (centres undefined), 648 s.

The values above are taken from the METLIN SMRT retention time set (Domingo-Almenara et al. 2019).
